Assay results from patent US7196110B2, “N-substituted tricyclic 3-aminopyrazoles as inhibitors for the treatment of cell proliferative disorders” (Janssen Phamaceutica N.V., priority 2002, dated 2007).

Target: T1, PDGF-receptor beta enzyme comprising the tyrosine kinase domain (Homo sapiens, UniProt P09619)
T1 construct: from amino acid 545 to 1106 of GenBank Access NO: AAA36427
Test: Inhibition of PDGF-receptor kinase activity (cell-free, PLC1 peptide, 33P Flashplate)
Assay type: biochemical
Conditions: PDGF-R kinase activity; for inhibition at 10 µM: compound at 10 uM, read-out: Percent Inhibition @ 10 uM; for IC50: read-out: IC50
Outline: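 The IC50 is the inhibitor level halving kinase activity relative to inhibitor-free wells, measured as 33P captured on a streptavidin-bound biotin-PLC1 peptide. The reaction ran 60 min at 30 °C in pH 8 Tris buffer with 1 mM DTT, 5 μM ATP and the 545–1106 kinase-domain enzyme.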

T1 sequence (P09619 545-1106): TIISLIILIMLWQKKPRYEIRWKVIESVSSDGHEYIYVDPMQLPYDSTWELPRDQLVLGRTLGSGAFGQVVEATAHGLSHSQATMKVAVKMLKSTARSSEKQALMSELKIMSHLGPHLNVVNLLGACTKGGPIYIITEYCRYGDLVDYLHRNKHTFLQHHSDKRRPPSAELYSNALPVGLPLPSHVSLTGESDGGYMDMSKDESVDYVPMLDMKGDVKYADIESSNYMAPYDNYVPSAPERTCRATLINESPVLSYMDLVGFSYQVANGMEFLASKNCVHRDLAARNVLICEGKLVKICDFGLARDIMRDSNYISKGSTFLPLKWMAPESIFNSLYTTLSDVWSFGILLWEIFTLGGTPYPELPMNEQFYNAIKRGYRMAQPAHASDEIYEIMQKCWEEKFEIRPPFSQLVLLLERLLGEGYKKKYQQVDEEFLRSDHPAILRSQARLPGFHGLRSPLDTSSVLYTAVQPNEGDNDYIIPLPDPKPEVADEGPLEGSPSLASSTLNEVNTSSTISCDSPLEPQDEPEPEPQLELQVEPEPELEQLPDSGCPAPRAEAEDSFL

inhibition at 10 µM [%]	IC50 [nM]	Compound
94.5	174	Fc1cccc(Nc2[nH]nc3c2Cc2c(OCCCN4CCOCC4)cccc2-3)c1 [Compound 393, (3-Fluoro-phenyl)-[5-(3-morpholin-4-yl-propoxy)-2,4-dihydro-indeno[1,2-c]pyrazol-3-yl]-amine]
91	329	CCOc1cccc(Nc2[nH]nc3c2Cc2c(OCCCN4CCOCC4)cccc2-3)c1 [Compound 394, (3-Ethoxy-phenyl)-[5-(3-morpholin-4-yl-propoxy)-2,4-dihydro-indeno[1,2-c]pyrazol-3-yl]-amine]
88	686	COc1cc2c(cc1OC)-c1nn(C(=O)Nc3cccc(F)c3)c(Nc3cccc(F)c3)c1C2 [Compound 395, 3-(3-Fluoro-phenylamino)-6,7-dimethoxy-4H-indeno[1,2-c]pyrazole-2-carboxylic acid (3-fluoro-phenyl)-amide]
92	7.7	COc1cc2c(cc1OCC(O)CN1CCCC1)Cc1c-2n[nH]c1NCc1ccccc1F (stereo not drawn) [Compound 397, 1-[3-(2-Fluoro-benzylamino)-7-methoxy-2,4-dihydro-indeno[1,2-c]pyrazol-6-yloxy]-3-pyrrolidin-1-yl-propan-2-ol]
90	196	c1cncc(Nc2[nH]nc3c2Cc2sccc2-3)c1 [Compound 402, (5,7-Dihydro-1-thia-4,5-diaza-cyclopenta[a]pentalen-6-yl)-pyridin-3-yl-amine]
96	85.9	Clc1cccc(Nc2[nH]nc3c2Cc2sccc2-3)c1 [Compound 403, (3-Chloro-phenyl)-(5,7-dihydro-1-thia-4,5-diaza-cyclopenta[a]pentalen-6-yl)-amine]
74.5	1110	Fc1ccc(Nc2[nH]nc3c2Cc2sccc2-3)cc1Cl [Compound 404, (3-Chloro-4-fluoro-phenyl)-(5,7-dihydro-1-thia-4,5-diaza-cyclopenta[a]pentalen-6-yl)-amine]
94.5	63.5	CCOc1cccc(Nc2[nH]nc3c2Cc2sccc2-3)c1 [Compound 405, (5,7-Dihydro-1-thia-4,5-diaza-cyclopenta[a]pentalen-6-yl)-(3-ethoxy-phenyl)-amine]
96	75	COc1cc2c(cc1OC)-c1nn(C(C)=O)c(Nc3cccc(F)c3)c1C2 [Compound 406, 1-[3-(3-Fluoro-phenylamino)-6,7-dimethoxy-4H-indeno[1,2-c]pyrazol-2-yl]-ethanone]
39	9880	CCOC(=O)CNC(=O)n1nc2c(c1Nc1cccc(F)c1)Cc1cc(OC)c(OC)cc1-2 [Compound 407, {[3-(3-Fluoro-phenylamino)-6,7-dimethoxy-4H-indeno[1,2-c]pyrazole-2-carbonyl]-amino}-acetic acid ethyl ester]
83	687	COc1cc2c(cc1OC)-c1nn(COC(=O)C(C)(C)C)c(Nc3cccc(F)c3)c1C2 [Compound 408, 2,2-Dimethyl-propionic acid 3-(3-fluoro-phenylamino)-6,7-dimethoxy-4H-indeno[1,2-c]pyrazol-2-ylm ethyl ester]
85.5	108	COc1cc2c(cc1OC)-c1c(c(Nc3cccc(F)c3)nn1COC(=O)C(C)(C)C)C2 [Compound 409, 2,2-Dimethyl-propionic acid 3-(3-fluoro-phenylamino)-6,7-dimethoxy-4H-indeno[1,2-c]pyrazol-1-ylm ethyl ester]
83.5	1080	COc1cc2c(cc1OC)-c1n[nH]c(Nc3cccc(F)c3Br)c1C2 [Compound 410, (2-Bromo-3-fluoro-phenyl)-(6,7-dimethoxy-2,4-dihydro-indeno[1,2-c]pyrazol-3-yl)-amine]
14.5	82.3	CCOC(=O)CCNC(=O)n1nc2c(c1Nc1ccccc1)Cc1cc(OC)c(OC)cc1-2 [Compound 411, 3-[(6,7-Dimethoxy-3-phenlylamino-4H-indeno[1,2-c]pyrazole-2-carbonyl)-amino]-propionic acid ethyl ester]
44	12700	COC(=O)C(CC(C)C)NC(=O)n1nc2c(c1Nc1cccc(F)c1)Cc1cc(OC)c(OC)cc1-2 (stereo not drawn) [Compound 412, 2-{[3-(3-Fluoro-phenylamino)-6,7-dimethoxy-4H-indeno[1,2-c]pyrazole-2-carbonyl]-amino}-4-methyl-pentanoic acid methyl ester]
71	1140	COC(=O)C(NC(=O)n1nc2c(c1Nc1cccc(F)c1)Cc1cc(OC)c(OC)cc1-2)C(C)C (stereo not drawn) [Compound 413, 2-{[3-(3-Fluoro-phenylamino)-6,7-dimethoxy-4H-indeno[1,2-c]pyrazole-2-carbonyl]-amino}-3-methyl-butyric acid methyl ester]
80.5	564	Fc1cccc(F)c1CNc1[nH]nc2c1Cc1c(OCCCN3CCOCC3)cccc1-2 [Compound 414, (2,6-Difluoro-benzyl)-[5-(3-morpholin-4-yl-propoxy)-2,4-dihydro-indeno[1,2-c]pyrazol-3-yl]-amine]

inhibition at 10 µM [%]	IC50 [nM]	Compound
72.5	1190	Fc1ccccc1CNc1[nH]nc2c1Cc1c(OCCCN3CCOCC3)cccc1-2 [Compound 416, (2-Fluoro-benzyl)-[5-(3-morpholin-4-yl-propoxy)-2,4-dihydro-indeno[1,2-c]pyrazol-3-yl]-amine]
27.5	12200	COc1cc(Nc2[nH]nc3c2Cc2c(OC)cccc2-3)cc(C(F)(F)F)c1 [Compound 417, (5-Methoxy-2,4-dihydro-indeno[1,2-c]pyrazol-3-yl)-(3-methoxy-5-trifluoromethyl-phenyl)-amine]
82.5	892	COc1cccc2c1Cc1c-2n[nH]c1Nc1cccc(S(N)(=O)=O)c1 [Compound 418, 3-(5-Methoxy-2,4-dihydro-indeno[1,2-c]pyrazol-3-ylamino)-benzenesulfonamide]
100	82.2	CCC1c2cc(OC)c(OC)cc2-c2n[nH]c(Nc3cccc(F)c3)c21 (stereo not drawn) [Compound 421, (4-Ethyl-6,7-dimethoxy-2,4-dihydro-indeno[1,2-c]pyrazol-3-yl)-(3-fluoro-phenyl)-amine]
90	181	COc1cccc2c1Cc1c-2n[nH]c1NCc1c(F)cccc1F [Compound 423, (2,6-Difluoro-benzyl)-(5-methoxy-2,4-dihydro-indeno[1,2-c]pyrazol-3-yl)-amine]
100	79.1	COc1cc2c(cc1OC)-c1n[nH]c(NCc3cccc(Cl)c3)c1C2 [Compound 424, (3-Chloro-benzyl)-(6,7-dimethoxy-2,4-dihydro-indeno[1,2-c]pyrazol-3-yl)-amine]
96	2.3	COc1cc2c(cc1F)Cc1c-2n[nH]c1NCc1ccccc1C [Compound 425, (6-Fluoro-7-methoxy-2,4-dihydro-indeno[1,2-c]pyrazol-3-yl)-(2-methyl-benzyl)-amine]
97	241	COc1cc2c(cc1F)Cc1c-2n[nH]c1NCc1ccccc1F [Compound 426, (2-Fluoro-benzyl)-(6-fluoro-7-methoxy-2,4-dihydro-indeno[1,2-c]pyrazol-3-yl)-amine]
80	1150	COc1cc2c(cc1OC)-c1c(c(Nc3cccc(F)c3)nn1C(=O)c1ccccc1)C2 [Compound 427, [3-(3-Fluoro-phenylamino)-6,7-dimethoxy-4H-indeno[1,2-c]pyrazol-1-yl]-phenyl-methanone]
85.5	432	COC(=O)CCC(=O)n1nc(Nc2cccc(F)c2)c2c1-c1cc(OC)c(OC)cc1C2 [Compound 428, 4-[3-(3-Fluoro-phenylamino)-6,7-dimethoxy-4H-indeno[1,2-c]pyrazol-1-yl]-4-oxo-butyric acid methyl ester]
72	671	CCOC(=O)CCC(=O)n1nc(Nc2cccc(F)c2)c2c1-c1cc(OC)c(OC)cc1C2 [Compound 429, 4-[3-(3-Fluoro-phenylamino)-6,7-dimethoxy-4H-indeno[1,2-c]pyrazol-1-yl]-4-oxo-butyric acid ethyl ester]
61.5	571	CCC(=O)n1nc(Nc2cccc(F)c2)c2c1-c1cc(OC)c(OC)cc1C2 [Compound 430, 1-[3-(3-Fluoro-phenylamino)-6,7-dimethoxy-4H-indeno[1,2-c]pyrazol-1-yl]-propan-1-one]
84.5	444	COc1cc2c(cc1OC)-c1c(c(Nc3cccc(F)c3)nn1C(=O)C(C)C)C2 [Compound 431, 1-[3-(3-Fluoro-phenylamino)-6,7-dimethoxy-4H-indeno[1,2-c]pyrazol-1-yl]-2-methyl-propan-1-one]
86	503	COC(=O)n1nc2c(c1Nc1cccc(F)c1)Cc1cc(OC)c(OC)cc1-2 [Compound 434, 3-(3-Fluoro-phenylamino)-6,7-dimethoxy-4H-indeno[1,2-c]pyrazole-2-carboxylic acid methyl ester]
67	1590	CCOC(=O)n1nc2c(c1Nc1cccc(F)c1)Cc1cc(OC)c(OC)cc1-2 [Compound 435, 3-(3-Fluoro-phenylamino)-6,7-dimethoxy-4H-indeno[1,2-c]pyrazole-2-carboxylic acid ethyl ester]
83.5	291	COCCOC(=O)n1nc2c(c1Nc1cccc(F)c1)Cc1cc(OC)c(OC)cc1-2 [Compound 437, 3-(3-Fluoro-phenyl-amino)-6,7-dimethoxy-4H-indeno[1,2-c]pyrazole-2-carboxylic acid 2-methoxy-ethyl ester]
